Experimental data published in patent US11952377B2, “Quinolines and azaquinolines as inhibitors of CD38” (BOEHRINGER INGELHEIM INTERNATIONAL GMBH, priority 2021, dated 2024).
pIC50: −log10 of the molar value.

molecular target: Human CD38 (Homo sapiens (Human), UniProt P28907); assay: CD38 enzyme assay; format: biochemical; conditions: 2 nM CD38, 30 min preincubation at 25° C., absorbance at 405 nm after 60 minutes
Source text: [formula] where CMPD is the value for the individual compound treated well, MIN is the average of the values of the 4-(((1r,4r)-4-(2-methoxyethoxy)cyclohexyl)amino)-1-methyl-6-(thiazol-5-yl)quinolin-2(1H)-one positive control wells and MAX is the average of the values of the DMSO negative control wells.
The % inhibition values were plotted as a function of compound concentration and the following 4-parameter fit was applied to derive the IC50 values:
[formula] where top and bottom are normally allowed to float, but may be fixed at 100 or 0 respectively in a 3-parameter fit. The Hill Coefficient is normally allowed to float but may also be fixed at 1 in a 3-parameter fit. Y is the % inhibition and X is the compound concentration.

Chain of Human CD38 (P28907 whole entry): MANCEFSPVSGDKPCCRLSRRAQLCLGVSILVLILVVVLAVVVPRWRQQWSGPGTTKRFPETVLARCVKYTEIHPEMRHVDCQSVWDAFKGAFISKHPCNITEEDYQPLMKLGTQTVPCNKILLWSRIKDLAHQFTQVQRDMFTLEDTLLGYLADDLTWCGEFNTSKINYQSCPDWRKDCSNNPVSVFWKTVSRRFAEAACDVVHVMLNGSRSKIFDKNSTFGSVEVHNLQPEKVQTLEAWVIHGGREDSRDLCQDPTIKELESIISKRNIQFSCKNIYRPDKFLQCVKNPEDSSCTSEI

Structure (SMILES)	pIC50
Cn1c(=O)cc(N[C@H]2CC[C@H](C3(O)CC3)CC2)c2nc(-n3ccnc3)ncc21 [Example 27, 8-(((1r,4r)-4-(1-hydroxycyclopropyl)cyclohexyl)amino)-2-(1H-imidazol-1-yl)-5-methylpyrido[3,2-d]pyrimidin-6(5H)-one]	> 8.00
Cn1c(=O)cc(N[C@H]2CC[C@H](NCC(C)(F)F)CC2)c2nc(-n3ccnc3)ncc21 [Example 19, 8-(((1r,4r)-4-((2,2-difluoropropyl)amino)cyclohexyl)amino)-2-(1H-imidazol-1-yl)-5-methylpyrido[3,2-d]pyrimidin-6(5H)-one]	> 8.00
Cn1c(=O)cc(N[C@H]2CC[C@H](NCC(F)(F)F)CC2)c2nc(-n3ccnc3)ncc21 [Example 23, 2-(1H-imidazol-1-yl)-5-methyl-8-(((1r,4r)-4-((2,2,2-trifluoroethyl)amino)cyclohexyl)amino)pyrido[3,2-d]pyrimidin-6(5H)-one]	> 8.00
Cn1c(=O)cc(NC2CCN(S(C)(=O)=O)CC2)c2cc(-n3ccnc3)ccc21 [Example 13]	7.00 to 8.00
CN(C)C(=O)CO[C@H]1CC[C@H](Nc2cc(=O)n(C)c3ccc(-n4ccnc4)cc23)CC1 [Example 14, 2-(((1r,4r)-4-((6-(1H-imidazol-1-yl)-1-methyl-2-oxo-1,2-dihydroquinolin-4-yl)amino)cyclohexyl)oxy)-N,N-dimethylacetamide]	7.00 to 8.00
Cn1c(=O)cc(Nc2ccc(OCCN3CCCC3)nc2)c2nc(-n3ccnc3)ncc21 [Example 25]	7.00 to 8.00
Cn1c(=O)cc(N[C@H]2CC[C@H](C(C)(C)O)CC2)c2cc(-n3ccnc3)ncc21 [Example 5, 4-(((1r,4r)-4-(2-hydroxypropan-2-yl)cyclohexyl)amino)-6-(1H-imidazol-1-yl)-1-methyl-1,7-naphthyridin-2(1H)-one]	7.00 to 8.00
Cn1c(=O)cc(N[C@H]2CC[C@H](C(C)(C)O)CC2)c2nc(-n3ccnc3)ncc21 [Example 8, 8-(((1r,4r)-4-(2-hydroxypropan-2-yl)cyclohexyl)amino)-2-(1H-imidazol-1-yl)-5-methylpyrido[3,2-d]pyrimidin-6(5H)-one]	> 8.00
CO[C@H]1CC[C@H](Nc2cc(=O)n(C)c3cnc(-n4ccnc4)nc23)CC1 [Example 24, 2-(1H-imidazol-1-yl)-8-(((1r,4r)-4-methoxycyclohexyl)amino)-5-methylpyrido[3,2-d]pyrimidin-6(5H)-one]	> 8.00
CN(C)CCOc1ccc(Nc2cc(=O)n(C)c3ccc(-n4ccnc4)cc23)cn1 [Example 17, 4-((6-(2-(dimethylamino)ethoxy)pyridin-3-yl)amino)-6-(1H-imidazol-1-yl)-1-methylquinolin-2(1H)-one]	7.00 to 8.00
Cn1c(=O)cc(N[C@H]2CC[C@H](NCC(F)(F)F)CC2)c2cc(-n3ccnc3)ccc21 [Example 11, 6-(1H-imidazol-1-yl)-1-methyl-4-(((1r,4r)-4-((2,2,2-trifluoroethyl)amino)cyclohexyl)amino)quinolin-2(1H)-one]	7.00 to 8.00
Cn1c(=O)cc(Nc2ccc(OCC(F)(F)F)nc2)c2cc(-n3ccnc3)ccc21 [Example 15, 6-(1H-imidazol-1-yl)-1-methyl-4-((6-(2,2,2-trifluoroethoxy)pyridin-3-yl)amino)quinolin-2(1H)-one]	7.00 to 8.00
Cn1c(=O)cc(NC2CCC(F)(F)CC2)c2nc(-n3ccnc3)ncc21 [Example 26, 8-((4,4-difluorocyclohexyl)amino)-2-(1H-imidazol-1-yl)-5-methylpyrido[3,2-d]pyrimidin-6(5H)-one]	> 8.00
COCCO[C@H]1CC[C@H](Nc2cc(=O)n(C)c3cnc(-n4ccnc4)nc23)CC1 [Example 7, 2-(1H-imidazol-1-yl)-8-(((1r,4r)-4-(2-methoxyethoxy)cyclohexyl)amino)-5-methylpyrido[3,2-d]pyrimidin-6(5H)-one]	7.00 to 8.00
COCCO[C@H]1CC[C@H](Nc2cc(=O)n(C)c3cnc(-n4ccnc4)cc23)CC1 [Example 6, 6-(1H-imidazol-1-yl)-4-(((1r,4r)-4-(2-methoxyethoxy)cyclohexyl)amino)-1-methyl-1,7-naphthyridin-2(1H)-one]	7.00 to 8.00
Cn1c(=O)cc(N[C@H]2CC[C@H](OCCN3CCCC3)CC2)c2cc(-n3ccnc3)ccc21 [Example 18, 6-(1H-imidazol-1-yl)-1-methyl-4-(((1r,4r)-4-(2-(pyrrolidin-1-yl)ethoxy)cyclohexyl)amino)quinolin-2(1H)-one]	7.00 to 8.00
Cn1c(=O)cc(N[C@H]2CC[C@H](C(C)(C)O)CC2)c2nc(-n3ccnc3)ccc21 [Example 4, 4-(((1r,4r)-4-(2-hydroxypropan-2-yl)cyclohexyl)amino)-6-(1H-imidazol-1-yl)-1-methyl-1,5-naphthyridin-2(1H)-one]	7.00 to 8.00
Cn1c(=O)cc(N[C@H]2CC[C@H](C(C)(C)O)CC2)c2cc(-n3ccnc3)ccc21 [Example 12, 4-(((1r,4r)-4-(2-hydroxypropan-2-yl)cyclohexyl)amino)-6-(1H-imidazol-1-yl)-1-methylquinolin-2(1H)-one]	7.00 to 8.00
Cn1c(=O)cc(Nc2ccc(C#N)cc2)c2nc(-n3ccnc3)ncc21 [Example 22, 4-((2-(1H-imidazol-1-yl)-5-methyl-6-oxo-5,6-dihydropyrido[3,2-d]pyrimidin-8-yl)amino)benzonitrile]	> 8.00
Cn1c(=O)cc(N[C@H]2CC[C@H](NC3COC3)CC2)c2cc(-n3ccnc3)ccc21 [Example 2, 6-(1H-imidazol-1-yl)-1-methyl-4-(((1r,4r)-4-(oxetan-3-ylamino)cyclohexyl)amino)quinolin-2(1H)-one]	7.00 to 8.00
Cn1c(=O)cc(Nc2ccc(OCCN3CCOCC3)nc2)c2nc(-n3ccnc3)ncc21 [Example 10, 2-(1H-imidazol-1-yl)-5-methyl-8-((6-(2-morpholinoethoxy)pyridin-3-yl)amino)pyrido[3,2-d]pyrimidin-6(5H)-one]	7.00 to 8.00
COCCO[C@H]1CC[C@H](Nc2cc(=O)n(C)c3ccc(-n4ccnc4)nc23)CC1 [Example 3, 6-(1H-imidazol-1-yl)-4-(((1r,4r)-4-(2-methoxyethoxy)cyclohexyl)amino)-1-methyl-1,5-naphthyridin-2(1H)-one]	7.00 to 8.00
CN(C)C(=O)CO[C@H]1CC[C@H](Nc2cc(=O)n(C)c3cnc(-n4ccnc4)nc23)CC1 [Example 21, 2-(((1r,4r)-4-((2-(1H-imidazol-1-yl)-5-methyl-6-oxo-5,6-dihydropyrido[3,2-d]pyrimidin-8-yl)amino)cyclohexyl)oxy)-N,N-dimethylacetamide]	7.00 to 8.00
COCCO[C@H]1CC[C@H](Nc2cc(=O)n(C)c3ccc(-n4ccnc4)cc23)CC1 [Example 1, 6-(1H-imidazol-1-yl)-4-(((1r,4r)-4-(2-methoxyethoxy)cyclohexyl)amino)-1-methylquinolin-2(1H)-one]	7.00 to 8.00
Cn1c(=O)cc(Nc2ccc(C(F)(F)F)cc2)c2nc(-n3ccnc3)ncc21 [Example 9, 2-(1H-imidazol-1-yl)-5-methyl-8-((4-(trifluoromethyl)phenyl)amino)pyrido[3,2-d]pyrimidin-6(5H)-one]	> 8.00
